Measured values from US20130109734A1 (Metabolex, Inc., priority 2010, published 2013).

Biological target: T1, human GPR120 (Homo sapiens, UniProt Q5NUL3)
T1 construct: host or cells: HEK293 cells co-expressing Gqi5
T1 sequence (Q5NUL3 1-361): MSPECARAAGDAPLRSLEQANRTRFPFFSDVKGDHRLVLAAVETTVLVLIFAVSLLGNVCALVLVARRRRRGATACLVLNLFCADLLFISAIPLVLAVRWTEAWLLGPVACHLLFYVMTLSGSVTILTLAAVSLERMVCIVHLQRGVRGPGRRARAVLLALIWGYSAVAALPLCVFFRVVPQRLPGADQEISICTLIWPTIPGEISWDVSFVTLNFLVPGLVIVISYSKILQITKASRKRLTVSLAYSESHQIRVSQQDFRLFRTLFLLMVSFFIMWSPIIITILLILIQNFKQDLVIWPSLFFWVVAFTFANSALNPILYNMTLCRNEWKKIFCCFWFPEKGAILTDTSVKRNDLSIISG
Experiment: Intracellular Ca2+ assay in human GPR120 stable cell line (HEK293 co-expressing Gqi5), Flexstation
Type: cell-based
Details: for % Activity (GW9508 Reference Compound): % activity at 5 μM compared to the maximal activity of GW9508 at 6.7 μM (=100%); for EC50: human GPR120 stably expressing cells, Ca2+ fluorescence (Max-Min), eight concentrations 0.00001 to 20 μM
Method: Human GPR120 stable cell line was purchased from Multispan Inc (26219 Eden Landing Road, Hayward, Calif. 94545). This GPR120 cell line was generated in HEK293 cells co-expressing Gqi5. In this cell line, the Flag epitope tag (DYKDDDDK) was fused to the amino terminus of human GPR120 protein.
The concentration of intracellular Ca^2+ was measured as described below. Human GPR120 cells were plated in 96 well plates (Poly-D-Lysine coated black/clear Plate, Greiner Bio-One) at 70,000 cells per well and cultured overnight in conditions of 37° C. and 5% CO2. A Ca^2+assay dye stock solution was prepared by adding 10 mL of assay buffer (HBSS/20 mM HEPES, pH 7.4) to FLIPR Calcium 4 Assay Bulk Kit (Molecular Devices). The 10 mL of Ca^2+ assay dye solution was prepared by further diluting 0.5 mL of Ca^2+ assay dye stock solution with 10 mL of assay buffer. The medium of the cells was removed and immediately 100 μL of the Ca^2+ assay dye solution was dispensed into each well followed by incubation at 37° C. and 5% CO2 for 50 minutes to incorporate the Ca^2+ dye into the cells. The cell plate was then placed in the Flexstation (Molecular Devices) for 20 minutes at 37° C. Compounds were dissolved in 100% DMSO and diluted to desired concentrations with assay buffer and placed in the Flexstation simultaneously with the cell plate for 20 minute incubation at 37° C. prior to reading. Fluorescence intensity was measured immediately following compound addition (25 μL/well) on the Flexstation at an excitation wavelength of 485 nm and an emission wavelength of 525 with 515 nm auto cutoff. The resulting increase in fluorescence intensities corresponds to increases in intracellular Ca^2+ levels.
Compounds were dissolved in 100% DMSO to a concentration of 20 mM to provide stock solutions. To determine activity against human GPR120, compounds were added with human GPR120 stably expressing cells (described above), at eight desired concentrations ranging from 0.00001 to 20 μM, in 96 well plates and fluorescence intensities were measured for 90 seconds with 2-second intervals. An EC50 value (concentration of the GPR120 agonist where 50% of the agonist's maximal activity is observed) was calculated using the changes (Max−Min) of fluorescence intensity.
To determine percent activity for a tested compound, the fluorescence intensity value obtained at a particular concentration were compared to the maximal fluorescence intensity value obtained for reference compound GW9508 (4-[[(3-phenoxyphenyl)methyl]amino]benzene propanoic acid; British Journal of Pharmacology 2006 148, 619-628) or the compound of Example 25. When GW9508 was used as the reference compound, the maximal activity of GW9508 at 6.7 μM was designated as 100% activity. When the compound of Example 25 was used as the reference compound, the maximal activity of the compound of Example 25 at 2.5 μM was designated as 100% activity. Typically, the GW9508 activity reached a maximum at a concentration of approximately 6.7 μM and typically the compound of Example 25 reached a maximum activity at approximately 2.5 μM.

[1] = human GPR120 cells, Ca2+ fluorescence

Row | SMILES | % Activity (GW9508 Reference Compound) [1] [%] | concentration at which activity reached a maximum (human GPR120 cells, Ca2+ fluorescence, reference compounds, typical value) | EC50 [µM]
1 | CC(Cc1cc(F)c(OCc2cccc3c2OC(C)(C)C3)c(F)c1)C(=O)O (centres unmarked) [Example 23, 3-(4-((2,2-dimethyl-2,3-dihydrobenzofuran-7-yl)methoxy)-3,5-difluorophenyl)-2-methylpropanoic acid] | 112.7429 |  | 
2 | CC1(C)Cc2cccc(COc3c(F)cc(C4CC4C(=O)O)cc3F)c2O1 (centres unmarked) [Example 24, 2-(4-((2,2-dimethyl-2,3-dihydrobenzofuran-7-yl)methoxy)-3,5-difluorophenyl)cyclopropanecarboxylic acid] | 100.3 |  | 
3 | CC1(C)Cc2cccc(COc3c(F)cc(CCC(=O)O)cc3F)c2O1 [Example 25, 3-(4-((2,2-dimethyl-2,3-dihydrobenzofuran-7-yl)methoxy)-3,5-difluorophenyl)propanoic acid] | 101.8 | approximately 2.5 μM | 
4 | CC(Cc1ccc(OCc2cc(Cl)cc3c2OC(C)(C)C3)cc1Cl)C(=O)O (centres unmarked) [Example 26, 3-(2-chloro-4-((5-chloro-2,2-dimethyl-2,3-dihydrobenzofuran-7-yl)methoxy)phenyl)-2-methylpropanoic acid] | 163.7 |  | 
5 | CC1(C)Cc2c(F)ccc(COc3c(F)cc(C4CC4C(=O)O)cc3F)c2O1 (centres unmarked) [Example 27, 2-(3,5-difluoro-4-((4-fluoro-2,2-dimethyl-2,3-dihydrobenzofuran-7-yl)methoxy)phenyl)cyclopropanecarboxylic acid] | 143.8489 |  | 
6 | CC(Cc1cc(F)c(OCc2ccc(F)c3c2OC(C)(C)C3)c(F)c1)C(=O)O (centres unmarked) [Example 28, 3-(3,5-difluoro-4-((4-fluoro-2,2-dimethyl-2,3-dihydrobenzofuran-7-yl)methoxy)phenyl)-2-methylpropanoic acid] | 109.6 |  | 
7 | CC(Cc1ccc(OCc2ccc(F)c3c2OC(C)(C)C3)c(F)c1)C(=O)O (centres unmarked) [Example 29, 3-(3-fluoro-4-((4-fluoro-2,2-dimethyl-2,3-dihydrobenzofuran-7-yl)methoxy)phenyl)-2-methylpropanoic acid] | 133.5 |  | 
8 | CC(Cc1ccc(OCc2ccc(F)c3c2OC(C)(C)C3)cc1)C(=O)O (centres unmarked) [Example 30, 3-(4-((4-fluoro-2,2-dimethyl-2,3-dihydrobenzofuran-7-yl)methoxy)phenyl)-2-methylpropanoic acid] | 176.6 |  | 
9 | CC1(C)Cc2c(C(F)(F)F)ccc(COc3c(F)cc(C4CC4C(=O)O)cc3F)c2O1 (centres unmarked) [Example 31, 2-(4-((2,2-dimethyl-4-(trifluoromethyl)-2,3-dihydrobenzofuran-7-yl)methoxy)-3,5-difluorophenyl)cyclopropanecarboxylic acid] | 149.5 |  | 
10 | CC(Cc1cc(F)c(OCc2ccc(C(F)(F)F)c3c2OC(C)(C)C3)c(F)c1)C(=O)O (centres unmarked) [Example 32, 3-(4-((2,2-dimethyl-4-(trifluoromethyl)-2,3-dihydrobenzofuran-7-yl)methoxy)-3,5-difluorophenyl)-2-methylpropanoic acid] | 143.1 |  | 
11 | CC(Cc1ccc(OCc2ccc(C(F)(F)F)c3c2OC(C)(C)C3)c(F)c1)C(=O)O (centres unmarked) [Example 33, 3-(4-((2,2-dimethyl-4-(trifluoromethyl)-2,3-dihydrobenzofuran-7-yl)methoxy)-3-fluorophenyl)-2-methylpropanoic acid] | 142.9517 |  | 
12 | CC(Cc1ccc(OCc2ccc(C(F)(F)F)c3c2OC(C)(C)C3)cc1)C(=O)O (centres unmarked) [Example 34, 3-(4-((2,2-dimethyl-4-(trifluoromethyl)-2,3-dihydrobenzofuran-7-yl)methoxy)phenyl)-2-methylpropanoic acid] | 117.9 |  | 
13 | CC1(C)Cc2cc(Cl)cc(COc3ccc4c(c3)CCC4CC(=O)O)c2O1 (centres unmarked) [Example 36, 2-(5-((5-chloro-2,2-dimethyl-2,3-dihydrobenzofuran-7-yl)methoxy)-2,3-dihydro-1H-inden-1-yl)acetic acid] | 122.9 |  | 
14 | CC1(C)Cc2cc(F)cc(COc3ccc4c(c3)CCC4CC(=O)O)c2O1 (centres unmarked) [Example 37, 2-(5-((5-fluoro-2,2-dimethyl-2,3-dihydrobenzofuran-7-yl)methoxy)-2,3-dihydro-1H-inden-1-yl)acetic acid] | 124.7 |  | 
15 | CC(Cc1cc(F)c(OCc2cc(Cl)cc3c2OC(C)(C)C3)c(F)c1)C(=O)O (centres unmarked) [Example 38, 3-(4-((5-chloro-2,2-dimethyl-2,3-dihydrobenzofuran-7-yl)methoxy)-3,5-difluorophenyl)-2-methylpropanoic acid] | 83.43 |  | 
16 | CC(Cc1cc(F)c(OCc2cccc3c2OC(C)C3C)c(F)c1)C(=O)O (centres unmarked) [Example 40, 3-(4-((2,3-dimethyl-2,3-dihydrobenzofuran-7-yl)methoxy)-3,5-difluorophenyl)-2-methylpropanoic acid] | 95.33 |  | > 10
17 | CC1(C)Cc2cc(Cl)cc(COc3c(F)cc(C4CC4CC(=O)O)cc3F)c2O1 (centres unmarked) [Example 41, 2-(2-(4-((5-chloro-2,2-dimethyl-2,3-dihydrobenzofuran-7-yl)methoxy)-3,5-difluorophenyl)cyclopropyl)acetic acid] | 116.46 |  | > 10
18 | CC(Cc1cc(F)c(OCc2c(F)c(F)cc3c2OC(C)(C)C3)c(F)c1)C(=O)O (centres unmarked) [Example 42, 3-(4-((5,6-difluoro-2,2-dimethyl-2,3-dihydrobenzofuran-7-yl)methoxy)-3,5-difluorophenyl)-2-methylpropanoic acid] | 140.94 |  | 
19 | CC(Cc1ccc(COc2cccc3c2OC(C)(C)C3)c(F)c1)C(=O)O (centres unmarked) [Example 44, 3-(4-(((2,2-dimethyl-2,3-dihydrobenzofuran-7-yl)oxy)methyl)-3-fluorophenyl)-2-methylpropanoic acid] | 157.14 |  | 
20 | CC(Cc1ccc(OCc2cc(F)cc3c2OCOC3)cc1)C(=O)O (centres unmarked) [Example 45, 3-(4-((6-fluoro-4H-benzo[d][1,3]dioxin-8-yl)methoxy)phenyl)-2-methylpropanoic acid] | 79.58 |  | 
21 | Cc1cc(OCc2cc(F)cc3c2OC(C)(C)C3)ccc1CCC(=O)O [Example 46, 3-(4-((5-fluoro-2,2-dimethyl-2,3-dihydrobenzofuran-7-yl)methoxy)-2-methylphenyl)propanoic acid] | 113.55 |  | 
22 | CC1(C)Cc2cc(F)cc(COc3ccc(CCC(=O)O)c(Cl)c3)c2O1 [Example 47, 3-(2-chloro-4-((5-fluoro-2,2-dimethyl-2,3-dihydrobenzofuran-7-yl)methoxy)phenyl)propanoic acid] | 111.18 |  | 
23 | COc1cc(OCc2cc(F)cc3c2OC(C)(C)C3)ccc1CCC(=O)O [Example 50, 3-(4-((5-fluoro-2,2-dimethyl-2,3-dihydrobenzofuran-7-yl)methoxy)-2-methoxyphenyl)propanoic acid] | 129.78 |  | 
